Molecular target: CrGSNOR1 (Chlamydomonas reinhardtii, UniProt A0A2K3D6R4)
Test: X-ray crystal structure, […] Å
Settings: co-crystallised with 1 mM NAD^+, pH 8.5; cofactor-binding domain

CrGSNOR1, sequence (A0A2K3D6R4 1-378): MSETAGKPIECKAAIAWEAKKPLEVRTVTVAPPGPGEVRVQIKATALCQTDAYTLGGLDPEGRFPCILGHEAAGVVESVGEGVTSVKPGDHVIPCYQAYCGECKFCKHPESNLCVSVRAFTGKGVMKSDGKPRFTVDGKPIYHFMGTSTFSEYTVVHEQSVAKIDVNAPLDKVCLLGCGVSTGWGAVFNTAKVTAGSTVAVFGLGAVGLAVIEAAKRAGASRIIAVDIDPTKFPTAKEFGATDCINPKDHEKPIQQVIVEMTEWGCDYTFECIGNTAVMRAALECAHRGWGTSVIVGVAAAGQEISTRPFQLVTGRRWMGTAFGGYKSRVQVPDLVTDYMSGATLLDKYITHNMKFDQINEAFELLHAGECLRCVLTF

## NC(=O)c1ccc[n+]([C@@H]2O[C@H](COP(=O)(O)OP(=O)(O)OC[C@H]3O[C@@H](n4cnc5c(N)ncnc54)[C@H](O)[C@@H]3O)[C@@H](O)[C@H]2O)c1 [NAD^+]
  X-ray crystal structure, 2.3 Å: crystal structure of CrGSNOR1 under both apo- and holo-form (NAD^+-CrGSNOR1)

Reference: PMC7744773 (Redox Biology, 2020)
